Reference: patent US20200115412A1, “SEPARATION OF VANCOMYCIN AND ITS DEGRADATION PRODUCTS” (SAVARA INC., priority 2018, published 2020)
Counter-ions that a name gives are not always drawn. Like-named read-outs stand apart in the source and are kept apart here.

Columns and labels:
[1] = Impurities in AeroVanc vancomycin powder stored for three months at 5° C. and 25° C., improved HPLC impurity method; type: physicochemical
Protocol: Calculate the concentration of each individual impurity in samples 1A, 2A and 3A, as follows:
Where: • I %i=Impurity concentration in sample 1A, 2A or 3A (as percentage) • 10=Dilution factor (50 mL/5.0 mL) • CV=Vancomycin concentration in sample solutions 1B, 2B or 3B (μg/mL) • Ci=Concentration of impurity in sample solution 1A, 2A or 3A (μg/mL) • Ci,total=Total concentration of impurities in sample solutions 1A, 2A or 3A
The method disclosed herein was also applied to the determination of degradation products of AeroVanc vancomycin powder stored for three months at 5° C. and 25° C.

[2] = Stated stability and handling properties; type: physicochemical; settings: reference standards handling
From the text: Vancomycin is a potent antibiotic reserved for serious drug-resistant bacterial infections including intravenous infusion for complicated infection (including MRSA) and oral administration for severe gastro-intestinal (GI) infections caused by Clostridium difficile. It was first isolated from soil bacterium (Amycolatopis orientalis) by Kornfeld in 1953, and first commercialized by Eli Lilly in 1954. Vancomycin, which is listed on the WHO's List of Essential Medicines, is a complex glycopeptide derived from N. orientalis with significant analytical challenges, including the presence of at least 12 identified impurities and a greater number of unknown impurities. […] Vancomycin has six ionizable groups and some of the impurities have seven. It is difficult to handle (high surface energy) and difficult to formulate. AeroVanc is a dry-powder inhalation product (DPI) under development for the treatment of methicillin resistant S. aureus (MRSA) infections in the lungs of cystic fibrosis patients. AeroVanc (vancomycin hydrochloride inhalation powder) contains the antibiotic and a single excipient, L-leucine. AeroVanc comprises a dry powder formulation which is delivered to the lungs by oral inhalation using a unit dose delivery device.

[3] = background statement; cited from earlier work
[4] = Impurity profiles of vancomycin degraded in solution and solid state (FIG. 22); type: physicochemical
From the text: The method disclosed herein was successfully applied to the determination of degradation products of vancomycin in the solution and solid states.

[5] = AeroVanc vancomycin powder stored three months at 5° C.
[6] = AeroVanc vancomycin powder stored three months at 25° C.

Row | Compound | Impurity (%) [1, 5] | Impurity (%) [1, 6] | further results
1 | CC(C)C[C@@H](N)C(=O)N[C@H]1C(=O)N[C@@H](CC(N)=O)C(=O)N[C@H]2C(=O)N[C@H]3C(=O)N[C@H](C(=O)N[C@H](C(=O)O)c4cc(O)cc(O)c4-c4cc3ccc4O)[C@H](O)c3ccc(c(Cl)c3)Oc3cc2cc(c3O[C@@H]2O[C@H](CO)[C@@H](O)[C@H](O)[C@H]2O[C@H]2C[C@](C)(N)[C@H](O)[C@H](C)O2)Oc2ccc(cc2Cl)[C@H]1O [N-demethyl, N-demethyl-vancomycin (EP Impurity A)] | 1.757% | 1.722% | 
2 | CC(C)C[C@H](C(=O)N[C@H]1C(=O)N[C@@H](CC(N)=O)C(=O)N[C@H]2C(=O)NC3C(=O)N[C@H](C(=O)N[C@H](C(=O)O)c4cc(O)cc(O)c4-c4cc3ccc4O)[C@H](O)c3ccc(c(Cl)c3)Oc3cc2cc(c3O[C@@H]2OC(CO)C(O)C(O)[C@H]2O[C@H]2C[C@](C)(N)[C@H](O)[C@H](C)O2)Oc2ccc(cc2Cl)[C@H]1O)N(C)C (some centres unmarked) [N-methyl, N-methyl-vancomycin] | 0.019% | 0.027% | 
3 | CN[C@H](CC(C)C)C(=O)N[C@H]1C(=O)N[C@@H](CC(N)=O)C(=O)N[C@H]2C(=O)N[C@H]3C(=O)N[C@H](C(=O)N[C@H](C(=O)O)c4cc(O)cc(O)c4-c4cc3ccc4O)[C@H](O)c3ccc(c(Cl)c3)Oc3cc2cc(c3O[C@@H]2O[C@H](CO)[C@@H](O)[C@H](O)[C@H]2O[C@H]2C[C@](C)(N)[C@H](O)[C@H](C)O2)Oc2ccc(cc2Cl)[C@H]1O [Vancomycin HCl, vancomycin hydrochloride] |  |  | light sensitivity and hygroscopicity [2]: light sensitive and hygroscopic
4 | CN[C@H](CC(C)C)C(=O)N[C@H]1C(=O)N[C@@H](CC(N)=O)C(=O)N[C@H]2C(=O)N[C@H]3C(=O)N[C@H](C(=O)N[C@H](C(=O)O)c4cc(O)cc(O)c4-c4cc3ccc4O)[C@H](O)c3ccc(c(Cl)c3)Oc3cc2cc(c3O[C@@H]2O[C@H](CO)[C@@H](O)[C@H](O)[C@H]2O[C@H]2C[C@](C)(N)[C@H](O)[C@H](C)O2)Oc2ccc(cc2Cl)[C@H]1O [Vancomycin] |  |  | stability at room temperature [3]: unstable at room temperature; net charge (at high pH): −4; net charge (at low pH): +2; net charge (plateau region between pH 3.5 and 5.5): +1; impurity profile of degraded vancomycin ([4]; degraded in aqueous solution, compared to the degraded solid): larger amounts of CDP-1 Minor, CPD-1 Major and additional unknowns; impurity profile of degraded vancomycin ([4]; degraded solid, compared to the degraded aqueous solution): increased desamido-succinimide vancomycin and agluco vancomycin
5 | Agluco-vancomycin (EP Impurity C) | 0.139% | 0.163% | 
6 | Cis-chloro-(2)-vancomycin | 0.194% | 0.200% | 
7 | De-((L-asn)-L-gln-vancomycin (EP Impurity B) [De-(L-Asn)-L-Gln] | 0.152% | 0.151% | 
8 | Des-(amido)-aspartyl-vancomycin (CDP-1 minor) [CDP-1minor] | 0.017% | 0.026% | 
9 | Des-(amido)-succinimido- vancomycin [Des-amido-succinimido] | 0.577% | 0.759% | 
10 | Desvancosamino-vancomycin (EP Impurity D) [Des-vancosamino] | 0.343% | 0.398% | 
11 | Epi-(26R)-vancomycin [Epi-26(R)] | 0.610% | 0.628% | 
12 | Monodechloro-(2)-vancomycin | 0.069% | 0.072% | 
13 | Monodechloro-(6)-vancomycin [Mono-dechloro-(6)] | 0.679% | 0.671% | 
